# Active and inactive are the calls of the source. No rule for the calls is given here.
# Target: Hepatocyte nuclear factor 4-alpha (Homo sapiens) (UniProt P41235)
# Assay: inhibitors of HNF4 dimer formation – biochemical, luminescence, dose response, round 3, counter-screen for ABHD5-PLIN5 interaction inhibitor project, late-stage follow-up (AID 652137)
# Conditions: HNF4 dimerization, luminescence biochemical assay
# Chain of Hepatocyte nuclear factor 4-alpha (Homo sapiens) (P41235 whole entry, looked up): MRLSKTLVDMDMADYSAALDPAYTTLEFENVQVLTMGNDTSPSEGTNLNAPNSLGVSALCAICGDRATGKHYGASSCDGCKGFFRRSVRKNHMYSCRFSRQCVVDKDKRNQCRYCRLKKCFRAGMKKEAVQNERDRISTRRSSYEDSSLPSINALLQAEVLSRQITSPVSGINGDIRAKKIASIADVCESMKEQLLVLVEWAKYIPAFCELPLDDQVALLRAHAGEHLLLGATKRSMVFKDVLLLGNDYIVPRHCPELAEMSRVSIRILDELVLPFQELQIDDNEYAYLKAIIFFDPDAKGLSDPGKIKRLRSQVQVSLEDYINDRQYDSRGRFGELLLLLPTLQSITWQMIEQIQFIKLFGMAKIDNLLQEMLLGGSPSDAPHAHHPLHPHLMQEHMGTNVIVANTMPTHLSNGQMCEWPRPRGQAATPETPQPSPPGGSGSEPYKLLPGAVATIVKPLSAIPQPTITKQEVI
row,IC50,SMILES
1,> 39.8 µM (inactive),CCCCCCNC(=O)Nc1ccc2c(c1)N(C)C(=O)c1ccccc1S2
2,> 39.8 µM (inactive),CCCCCCCNC(=O)Nc1ccc2c(c1)N(C)C(=O)c1ccccc1S2
3,> 39.8 µM (inactive),CCCCCNC(=O)Nc1ccc2c(c1)N(C)C(=O)c1ccccc1S2
4,> 39.8 µM (inactive),CN1C(=O)c2ccccc2Sc2ccc(NC(=O)NCCCc3ccccc3)cc21
5,> 39.8 µM (inactive),CCCCNC(=O)Nc1ccc2c(c1)N(C)C(=O)c1ccccc1S2

# Source: PubChem BioAssay AID652137 (The Scripps Research Institute Molecular Screening Center, 2013)
